ChEMBL document CHEMBL3271962 (J Med Chem, 1976)
pIC50: −log10 of the molar value.

What was measured:
[1] = species: Rattus norvegicus; assay: Inhibition of [3H]norepinephrine uptake at NET expressed in rat hypothalamic homogenate containing synaptosomes after 5 mins by scintillation counting analysis relative to (+)-amphetamine; type: subcellular; details: Brain
[2] = target: Sodium-dependent dopamine transporter (Rattus norvegicus) (UniProt P23977); assay: Inhibition of [3H]dopamine uptake at dopamine transporter expressed in rat striatal homogenate after 5 mins by scintillation counting analysis relative to (+)-amphetamine
Chain of Sodium-dependent dopamine transporter (Rattus norvegicus) (P23977 whole entry): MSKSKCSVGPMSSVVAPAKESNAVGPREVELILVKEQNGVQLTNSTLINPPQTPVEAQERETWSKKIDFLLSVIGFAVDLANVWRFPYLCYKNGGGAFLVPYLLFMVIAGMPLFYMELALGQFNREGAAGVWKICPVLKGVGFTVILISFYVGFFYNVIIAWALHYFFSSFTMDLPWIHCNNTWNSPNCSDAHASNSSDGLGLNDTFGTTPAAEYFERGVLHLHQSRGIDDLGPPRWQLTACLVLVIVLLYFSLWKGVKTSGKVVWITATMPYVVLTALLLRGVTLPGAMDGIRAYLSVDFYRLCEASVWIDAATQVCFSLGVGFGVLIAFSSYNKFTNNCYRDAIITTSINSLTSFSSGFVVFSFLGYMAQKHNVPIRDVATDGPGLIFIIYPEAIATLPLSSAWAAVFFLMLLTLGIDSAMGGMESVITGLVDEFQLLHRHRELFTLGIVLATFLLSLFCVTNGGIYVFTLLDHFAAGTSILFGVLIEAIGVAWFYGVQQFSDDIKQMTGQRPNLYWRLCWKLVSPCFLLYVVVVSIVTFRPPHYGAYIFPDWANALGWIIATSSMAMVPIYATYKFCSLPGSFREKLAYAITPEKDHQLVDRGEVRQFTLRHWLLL

[3] = target: Transporter (Rattus norvegicus, UniProt Q63380); assay: Inhibition of [3H]norepinephrine uptake at NET expressed in rat hypothalamic homogenate containing synaptosomes after 5 mins by scintillation counting analysis; type: subcellular, Brain
Chain of Transporter (Q63380 whole entry): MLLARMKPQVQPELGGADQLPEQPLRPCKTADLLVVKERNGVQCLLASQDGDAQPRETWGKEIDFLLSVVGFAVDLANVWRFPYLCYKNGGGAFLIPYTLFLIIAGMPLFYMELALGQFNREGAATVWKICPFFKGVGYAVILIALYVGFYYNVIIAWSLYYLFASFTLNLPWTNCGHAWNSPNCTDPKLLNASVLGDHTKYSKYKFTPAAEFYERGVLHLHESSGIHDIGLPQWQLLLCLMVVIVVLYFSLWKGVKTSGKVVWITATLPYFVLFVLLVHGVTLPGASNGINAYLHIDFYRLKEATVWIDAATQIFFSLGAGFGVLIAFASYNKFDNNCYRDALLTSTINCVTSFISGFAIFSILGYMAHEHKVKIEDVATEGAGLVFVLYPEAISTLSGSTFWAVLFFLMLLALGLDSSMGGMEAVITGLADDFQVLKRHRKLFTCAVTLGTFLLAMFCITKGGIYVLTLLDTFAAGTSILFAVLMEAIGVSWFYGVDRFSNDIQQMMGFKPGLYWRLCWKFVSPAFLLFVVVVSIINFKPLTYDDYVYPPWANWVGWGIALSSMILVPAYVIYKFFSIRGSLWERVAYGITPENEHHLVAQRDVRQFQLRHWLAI

[4] = target: Sodium-dependent dopamine transporter (Rattus norvegicus, UniProt P23977); assay: Inhibition of [3H]dopamine uptake at dopamine transporter expressed in rat striatal homogenate after 5 mins by scintillation counting analysis
Chain of Sodium-dependent dopamine transporter (P23977 whole entry): as the sequence (P23977 whole entry) above

NC1C[C@@H]2CCCC[C@H]2CC1(O)c1ccc(O)c(O)c1 (mixture of isomers; form 3)
fold change (FC) [1]: 0.03
fold change (FC) [2]: 1.1

NC1C[C@@H]2CCCC[C@H]2CC1c1ccccc1 (mixture of isomers; 3) [listing 1 of 2 here]
fold change (FC) [1]: 2.2
fold change (FC) [2]: 4.8

NC1C[C@@H]2CCCC[C@H]2CC1c1ccccc1 (mixture of isomers; 2) [listing 1 of 2 here]
pIC50 [3]: 4.74
pIC50 [4]: 4.92

NC1C[C@@H]2CCCC[C@H]2CC1(O)c1ccc(O)c(O)c1 (mixture of isomers; form 2)
fold change (FC) [1]: 8.9
fold change (FC) [2]: 50

NC1C[C@@H]2CCCC[C@H]2CC1c1ccccc1 (mixture of isomers; 1) [listing 1 of 2 here]
pIC50 [3]: 6.18
pIC50 [4]: 5.42

NC1C[C@@H]2CCCC[C@H]2CC1(O)c1ccc(O)c(O)c1 (mixture of isomers; form 4)
fold change (FC) [1]: 2
fold change (FC) [2]: 5.7

NC1C[C@@H]2CCCC[C@H]2CC1c1ccccc1 (mixture of isomers; 4) [listing 1 of 2 here]
fold change (FC) [1]: 3.6
fold change (FC) [2]: 14

NC1C[C@@H]2CCCC[C@H]2CC1c1ccccc1 (mixture of isomers; 2) [listing 2 of 2 here]
fold change (FC) [1]: 1.1
fold change (FC) [2]: 8

NC1C[C@@H]2CCCC[C@H]2CC1c1ccccc1 (mixture of isomers; 3) [listing 2 of 2 here]
pIC50 [3]: 5.05
pIC50 [4]: 4.70

NC1C[C@@H]2CCCC[C@H]2CC1(O)c1ccc(O)c(O)c1 (mixture of isomers; form 1)
fold change (FC) [1]: 4.4
fold change (FC) [2]: 2.3

NC1C[C@@H]2CCCC[C@H]2CC1c1ccccc1 (mixture of isomers; 4) [listing 2 of 2 here]
pIC50 [3]: 5.26
pIC50 [4]: 5.15

NC[C@H](O)c1ccc(O)c(O)c1
fold change (FC) [1]: 100
fold change (FC) [2]: 100

NC1C[C@@H]2CCCC[C@H]2CC1c1ccccc1 (mixture of isomers; 1) [listing 2 of 2 here]
fold change (FC) [1]: 30
fold change (FC) [2]: 25
